Experimental data: US20140037625A1, “BIOMARKERS AND METHODS OF TREATMENT” (GENENTECH, INC., priority 2010, published 2014)
Like-named read-outs stand apart in the source and are kept apart here.

What was measured:
[1] = system: NSCLC patients; conditions: cited from earlier work
[2] = system: patients with second and third-line NSCLC; conditions: for Difference in ORR, % (95% CI): Erlotinib + MetMAb vs Erlotinib + Placebo
Source text: The original protocol for this study was described, e.g., in WO2010/045345; however, the study was later modified to add enrollment of 50 patients with squamous cell histology as follows. […] During this study, patients and treating individuals, including the investigators, were blinded to the treatment assignment of study drug (MetMAb or placebo).
During the study, data on tumor measurement and survival status were collected for evaluation of PFS, overall survival (OS) and overall response rate (ORR). CT scans were obtained at baseline and for the first four cycles at an approximately every 6 week intervals (i.e., every two three-week cycles of MetMAb/placebo). After four cycles, routine CT scans were performed approximately every 9 weeks (every 3 cycles of MetMAb/placebo). FDG-PET imaging is obtained at baseline and at Day 10-14 of Cycle 1. During the course of this study, an Image Reading facility (IRF) evaluated FDG-PET results and determined whether FDG-PET imaging should continue in all participating sites or whether FDG-PET imaging should be confined to a few sites based on data received.
The primary outcome measure of this study was progression free survival (PFS) defined by the Response Evaluation Criteria In Solid Tumors (RECIST)) 1.0 or death from any cause within thirty days of the last treatment.
(a) overall response (OR) (partial response plus complete response) as determined using RECIST 1.0 in Met positive tumors and overall; and
(c) Overall survival (time from randomization until death from any cause within 30 days of the last study treatment).
Kaplan-Meier methodology was used to estimate the median PFS for each treatment arm. The stratification factors were determined by the […] (CRF) data, not by data collected by the interactive voice […] system at the time of randomization unless the CRF data was missing. Estimation of the hazard ration (i.e., the magnitude of the treatment effect and the 95% confidence interval) was determined using a stratified Cox regression model with an indicator variable for MetMAb treatment. The same analysis methods as those described for PFS in “overall” population patients were applied to patients with met positive tumors and to patients with SCC histology. All deaths from any cause within 30 days of the last treatment were included as PFS events. Objective response was defined as a complete or partial response determined on two consecutive occasions greater than or equal to four weeks apart. Patients without a post-baseline tumor assessment were considered non-responders. An estimate of the objective response rate and 95% confidence interval (Blyth-Still-Casella) was calculated for each treatment arm. Confidence intervals for the difference in tumor response rate (Satnes and Snell 1980; Berger and Boos 1994) were calculated. For patients with an objective response, duration of objective response was defined as the time from the initial response to disease progression or death from any cause within 30 days of the last treatment. Methods for handling censoring and for analysis were the same as described for PFS. All secondary efficacy endpoints were assessed for patients with met positive tumors, patients with SCC histology and by “overall” patient population.

[3] = system: patients with advanced NSCLC; test: Exploratory biomarker analyses from OAM4558g (MET FISH, mRNA by qRT-PCR) with outcome; assay type: in vivo, human
Method: MET and EGFR gene copy numbers were evaluated by fluorescent in situ hybridization (FISH). […] True MET amplification was defined as tight gene cluster of greater than or equal to 15 copies of MET in greater than or equal to 10% of tumor cells or a MET/CEP7 ratio of greater than or equal to 2.
MET, HGF, EGFR, AREG, and EREG mRNA expression was evaluated on RNA extracted from macro-dissected tumor tissue slides using the Fluidigm platform. Transcript levels were normalized to the mean of two reference genes that are stably expressed in lung tissue and results are expressed as normalized expression values (2^−ΔCt).
Exploratory tumor biomarkers related to c-Met and/or EGFR signaling were measured by FISH, qRT-PCR or various mutation detection techniques from archival tumor tissue specimens. Plasma HGF levels were measured by ELISA. Analyses with outcome were carried out independent of Met clinical diagnostic status.

[4] = system: patients with second and third-line NSCLC; conditions: in vivo
Source text: (§1) This study was a Phase II, double-blind, randomized, multicenter trial designed to evaluate the preliminary activity and safety of treatment with MetMAb plus Erlotinib versus Erlotinib plus placebo in second and third-line NSCLC. […] Once 120 patients, comprising the “overall” population were enrolled, eligibility was restricted to patients with squamous cell carcinoma (SCC) histology to ensure that a total of approximately 80 patients with SCC are enrolled in the study. Randomization for the first 120 patients comprising the “overall” population was stratified by smoking status (non-smokers and smokers who have quit more than 10 years ago versus current smokers and smokers who have quit less than 10 years ago), performance status and histology, and randomization for the next 50 SCC patients will be stratified by smoking status and performance status. Treatment in each arm was continued until progression of disease, unacceptable toxicity, or any other discontinuation criterion was met. Upon disease progression, patients randomized to the Erlotinib plus placebo arm were given the option to receive MetMAb (in addition to continuing Erlotinib), provided they continue to meet eligibility criteria. Safety data collected from this cross-over was summarized for hypothesis generating purposes.
(§2) Primary and secondary efficacy analyses included all randomized patients, with patients allocated to the treatment arm to which they were randomized. Safety analyses included all randomized patients who received at least one dose of study treatment, with patients allocated to the treatment arm associated with the regimen actually received. Demographic and baseline characteristics (e.g. age and sex) were summarized using means, standard deviations, medians, and ranges for continuous variables and proportions for categorical variables, as appropriate. Summaries were presented by overall patient population and by treatment arm. The baselines value of any variable were defined as the last available value prior to the first administration of study treatment.
(§3) The dose of MetMAb was 15 mg/kg intravenously on Day 1 of a 3-week cycle. The weight at screening was used to determine the actual dose of MetMAb. The dose of erlotinib was 150 mg by mouth each day of a 3-week cycle. Dosage level for erlotinib may have been reduced to 100 mg (first reduction) or 50 mg (second reduction) for toxicity likely attributable to erlotinib (e.g., rash, diarrhea).

[5] = system: patients with second and third-line NSCLC; test: Phase II trial of MetMAb plus erlotinib versus erlotinib plus placebo: safety, disposition and exposure
Source text: as §1, §2, §3

[6] = Met High, data cut-off Jun. 8, 2010
[7] = Met Low, data cut-off Jun. 8, 2010
[8] = Met diagnostic negative patients, MetMAb+erlotinib vs erlotinib and placebo, data cut-off Nov. 15, 2010
[9] = Met diagnostic positive patients, MetMAb plus erlotinib vs placebo+erlotinib, data cut-off Nov. 15, 2010
[10] = Met diagnostic positive patients, data cut-off Nov. 15, 2010
[11] = Met high patients, MetMAb plus erlotinib vs placebo plus erlotinib, data cut-off Jun. 8, 2010
[12] = Met high patients, data cut-off Jun. 8, 2010
[13] = Met low patients, ME vs erlotinib and placebo, data cut-off Jun. 8, 2010
[14] = Overall, data cut-off Jun. 8, 2010
[15] = overall (ITT) population, MetMAb plus erlotinib vs placebo plus erlotinib, data cut-off Jun. 8, 2010
[16] = overall (ITT) population, MetMAb plus erlotinib vs placebo plus erlotinib, data cut-off Nov. 15, 2010
[17] = Met Diagnostic-Negative, data cut-off Nov. 15, 2010
[18] = Met Diagnostic-Positive, data cut-off Nov. 15, 2010
[19] = all patients, data cut-off Jun. 8, 2010

Nc1nc2[nH]cc(CCc3ccc(C(=O)N[C@@H](CCC(=O)O)C(=O)O)cc3)c2c(=O)[nH]1 [Pemtrexed]
efficacy in SCC ([1]; NSCLC SCC, Scagliotti et al, 2008): relatively lower efficacy
activity in adenocarcinoma ([1]; NSCLC adenocarcinoma, Scagliotti et al, 2008): active

Erlotinib + MetMAb: MetMAb (15 mg/kg IV q3wks) plus erlotinib treatment, interchangeably termed ME
overall survival treatment effect HR (unstratified Cox model) ([2]; 10% Met diagnostic positive and not Met diagnostic positive using the 50% cutoff): 2.83
overall survival treatment effect HR (unstratified Cox model) ([2]; 10% Met diagnostic positive patients (>=10% tumor cells IHC 2+ or 3+)): 0.52
overall survival treatment effect HR (unstratified Cox model) ([2]; 90% Met diagnostic positive patients): 0.30
Difference in ORR, % (95% CI) [2, 6]: 5.2 (−6.0-16.5) %
# pts PD by RECIST [2, 6]: n = 17
No. of patients with OR (%) [2, 6]: 3 (8.6) No. of patients (%)
Pattern of progression: PD by new lesions [2, 6]: 9 (52.9)
Pattern of progression: PD on target lesions [2, 6]: 11 (64.7)
PFS benefit by subgroup ([2]; Met IHC status 0 and 1 patients, data cut-off Jun. 8, 2010): did not benefit
PFS benefit by subgroup ([2]; Met IHC status 3 and 2 patients, data cut-off Jun. 8, 2010): showed benefit
# pts PD by RECIST [2, 7]: n = 15
Pattern of progression: PD by new lesions [2, 7]: 7 (46.7)
Pattern of progression: PD on target lesions [2, 7]: 11 (73.3)
OS benefit by subgroup ([2]; Met diagnostic negative IHC status 0 and 1 patients, data cut-off Nov. 15, 2010): did not benefit
OS HR [2, 8]: 1.78
PFS HR [2, 8]: 1.82
OS benefit by subgroup ([2]; Met diagnostic positive IHC status 3 and 2 patients, data cut-off Nov. 15, 2010): showed benefit
OS Hazard ratio (HR) [2, 9]: 0.37
PFS Hazard ratio (HR) [2, 9]: 0.53
median OS [2, 10]: 12.6 months
median PFS [2, 10]: 2.9 months
overall survival treatment effect HR (unstratified Cox model) ([2]; Met diagnostic positive using 50% cutoff): 0.38
overall survival treatment effect HR (unstratified Cox model) ([2]; Met diagnostic positive using 50% cutoff and not 90% Met diagnostic positive): 0.75
OS benefit by subgroup ([2]; Met high IHC status 3 and 2 patients, data cut-off Jun. 8, 2010): showed benefit
OS Hazard ratio (HR) [2, 11]: 0.55
PFS Hazard ratio (HR) [2, 11]: 0.56
median OS [2, 12]: 7.7 weeks
median PFS [2, 12]: 12.4 weeks
OS HR ([2]; Met high population excluding patients with known EGFR mutations, relative to placebo+erlotinib, data cut-off Jun. 8, 2010): 0.55
OS benefit by subgroup ([2]; Met low IHC status 0 and 1 patients, data cut-off Jun. 8, 2010): did not benefit
OS HR [2, 13]: 3.26
PFS HR [2, 13]: 2.01
patients progressed by the first assessment (CAT scan at week 6) ([2]; Met low patients, data cut-off Jun. 8, 2010): ~70%
patients progressed by the first assessment (CAT scan at week 6) ([2]; Met low patients, data cut-off Nov. 15, 2010): ~70%
Difference in ORR, % (95% CI) [2, 14]: 1.6 (−6.3-9.4) %
No. of patients with OR (%) [2, 14]: 4 (6.3) No. of patients (%)
OS HR [2, 15]: 1.09
PFS HR [2, 15]: 1.09
OS Hazard ratio [2, 16]: 0.8
PFS Hazard ratio [2, 16]: 1.09
Objective response rate ([2]; overall population, data cut-off Jun. 8, 2010): 6.3%
outcome HR ([3]; AREG mRNA High, MetMAb + Erlotinib vs Placebo + Erlotinib): 0.77
outcome Median (mo) ([3]; AREG mRNA Low (median 7.11)): 6.5 mo
outcome HR ([3]; AREG mRNA Low, MetMAb + Erlotinib vs Placebo + Erlotinib): 1.31
outcome Median (mo) ([3]; EGFR mRNA High (median 7.75)): 7.1 mo
outcome HR ([3]; EGFR mRNA High, MetMAb + Erlotinib vs Placebo + Erlotinib): 1.1
outcome Median (mo) ([3]; EGFR mRNA Low (median 7.75)): 11.7 mo
outcome HR ([3]; EGFR mRNA Low, MetMAb + Erlotinib vs Placebo + Erlotinib): 0.88
outcome Median (mo) ([3]; EREG mRNA High (median 0.26)): 10.2 mo
outcome HR ([3]; EREG mRNA High, MetMAb + Erlotinib vs Placebo + Erlotinib): 0.67
outcome Median (mo) ([3]; EREG mRNA Low (median 0.26)): 8.1 mo
outcome HR ([3]; EREG mRNA Low, MetMAb + Erlotinib vs Placebo + Erlotinib): 1.34
outcome Median (mo) ([3]; MET mRNA High (median 3.16)): 8.7 mo
outcome HR ([3]; MET mRNA High, MetMAb + Erlotinib vs Placebo + Erlotinib): 0.59
outcome Median (mo) ([3]; MET mRNA Low (median 3.16)): 11.7 mo
outcome HR ([3]; MET mRNA Low, MetMAb + Erlotinib vs Placebo + Erlotinib): 1.48
All adverse events: Dyspnea [4]: 7 (20.0) n (%)
Grade 3-5 adverse events: Pneumonia [4]: 1 (2.9) n (%)
Patient disposition: Adverse events [4]: 7 (10.9) n (%)
Safety: tolerability [4]: well-tolerated
Summary of safety data: Adverse events leading to death ([5]; Met Diagnostic Negative, data cut-off Nov. 15, 2010): 3 (9.7) No. of patients (%)
Summary of safety data: Adverse events leading to death ([5]; Met Diagnostic Positive, data cut-off Nov. 15, 2010): 1 (2.9) No. of patients (%)
Patient disposition: Death [5, 17]: 2 (6.5) No. of patients (%)
Patient disposition: Disease progression [5, 17]: 22 (71.0) No. of patients (%)
Patient disposition: Death [5, 18]: 0 No. of patients (%)
Patient disposition: Disease progression [5, 18]: 18 (51.4) No. of patients (%)
Summary of safety: AEs leading to death [5, 6]: 1 (2.9) n (%)
All adverse events: Dyspnea [5, 7]: 4 (14.8) n (%)
Summary of safety: AEs leading to death [5, 7]: 4 (14.8) n (%)
Grade 3-5 adverse events: Pneumonia ([5]; Met low, data cut-off Jun. 8, 2010): 4 (14.8) n (%)
Patient disposition: Deaths [5, 19]: 2 (3.1) n (%)
Patient disposition: Disease progression [5, 19]: 34 (53.1) n (%)

MetMAb: known recombinant, humanized, monovalent monoclonal antibody directed against c-met
OS HR ([3]; EGFR-wildtype patients that were Met diagnostic positive and MET FISH negative): 0.45
outcome HR ([3]; EGFR-wildtype patients, MET FISH positive at lower threshold ≧4 copies): 0.89
frequency of peripheral edema in MetMAb treated arms ([5]; both Met diagnostic positive and diagnostic negative populations, data cut-off Nov. 15, 2010): higher

bevacizumab: anti-VEGF antibody
bleeding risk ([1]; in vivo): increased bleeding risk
